One assay addresses T1, CCKA receptor (Cavia porcellus, UniProt Q63931).
T1 construct: The pancreatata were removed from male guineau-pigs (200-300 g; Dunkin Hartley); from tissue; host or cells: pancreas membranes of male Dunkin Hartley guinea-pigs
T1 sequence (Q63931 1-430): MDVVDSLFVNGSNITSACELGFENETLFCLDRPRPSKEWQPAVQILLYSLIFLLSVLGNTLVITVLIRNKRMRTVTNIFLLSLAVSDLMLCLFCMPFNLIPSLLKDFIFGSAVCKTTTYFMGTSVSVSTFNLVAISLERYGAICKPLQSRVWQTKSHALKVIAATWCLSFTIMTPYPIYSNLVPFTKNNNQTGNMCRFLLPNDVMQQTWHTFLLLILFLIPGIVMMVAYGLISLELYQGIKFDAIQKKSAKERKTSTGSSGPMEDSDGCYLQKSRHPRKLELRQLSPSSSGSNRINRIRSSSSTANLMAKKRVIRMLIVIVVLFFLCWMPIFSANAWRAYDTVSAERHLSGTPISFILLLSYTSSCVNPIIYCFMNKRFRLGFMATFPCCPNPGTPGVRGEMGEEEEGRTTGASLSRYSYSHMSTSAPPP
In words: CCKA binding assay in guinea-pig pancreas membranes. Conditions: [125I]-CCK8(S) 200 pM, with 0.375 μM PD134,308, read-out: CCKA pKi (converted). As for the experimental part: The compounds of certain examples were also tested in a CCKA binding assay as follows:
The pancreatata were removed from male guineau-pigs (200-300 g; Dunkin Hartley) and placed in ice-cold HEPES buffer (pH 7.2 @ 21±3° C.). The pancreatata were homogenised in 40 ml ice-cold HEPES buffer using a polytron (Brinkmann, PT10, setting 10) 4×1 second. The homogenate was centrifuged at 39,800 g for 15 min at 4° C. The supernatant was discarded and the pellet re-suspended using a Teflon-in-glass homogeniser in 20 volumes of fresh buffer and re-centrifuged as above. The final pellet was re-suspended using a Teflon-in-glass homogeniser to a tissue concentration of 1 mg.ml^−1 (original weight), and filtered through a 500 μm pore-size Nytex mesh.
The membranes (400 μl; containing 0.375 μM PD134,308) were incubated for 150 minutes at 21±3° C. in a final volume of 0.5 ml with HEPES buffer containing [^125I]-CCK8 (S) (50 μl; 200 pM) and competing compound. Total and non-specific binding of [^125I]-CCK8 (S) were defined using 50 μl of buffer and 50 μ of 100 nM L-364,718 respectively. The assay was terminated by rapid filtration through pre-soaked Whatman GF/B filters using a Brandell Cell Harvetser. The filters were washed (3×3 ml) with ice-cold 50 mM Tris HCl (pH 7.4 @ 4° C.) and bound radioactivity was determined by counting (1 min) in a gamma counter.

In a further assay the target is T2, gastrin receptor (Rattus norvegicus, UniProt P30553).
T2 construct: The stomach was excised and flushed with ca. 1 ml of unbuffered physiological saline solution; from tissue; host or cells: isolated whole stomach of immature rats (ca. 21 days old)
T2 sequence (P30553 1-452): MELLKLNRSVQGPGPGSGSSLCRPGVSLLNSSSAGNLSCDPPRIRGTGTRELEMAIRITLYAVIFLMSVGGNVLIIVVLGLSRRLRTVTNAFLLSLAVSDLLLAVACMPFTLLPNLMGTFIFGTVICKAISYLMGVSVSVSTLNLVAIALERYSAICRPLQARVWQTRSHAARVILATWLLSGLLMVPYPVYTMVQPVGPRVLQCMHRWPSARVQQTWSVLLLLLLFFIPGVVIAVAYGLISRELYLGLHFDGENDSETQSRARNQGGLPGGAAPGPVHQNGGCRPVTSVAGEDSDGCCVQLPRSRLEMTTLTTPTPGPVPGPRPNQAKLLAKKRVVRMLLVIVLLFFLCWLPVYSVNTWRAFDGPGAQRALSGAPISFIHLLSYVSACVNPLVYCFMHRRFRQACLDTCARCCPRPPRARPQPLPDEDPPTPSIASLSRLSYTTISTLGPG
In words: gastrin antagonist activity in immature rat stomach assay (pentagastrin dose-response, acid secretion). The settings on record: isolated immature rat stomach, cumulative pentagastrin dose-response curves, read-out: Gastrin pKb (converted). The method in brief: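 Isolated, lumen-perfused stomach from immature rats (33-50 g, ca. 21 days) in a 37° organ bath with 3×10^−8 M 5-methylfurmethide, gassed 95% O2/5% CO2. Compound added serosally after 120 min stabilisation; cumulative pentagastrin dose-response curves begun 60 min later, acid secretion followed by perfusate pH.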

The next assay deals with T3, CCKB receptor (Mus musculus, UniProt P56481).
T3 construct: The whole brains from male mice (CD1 22-25 g; Charles River) were removed; from tissue; host or cells: cerebral cortex membranes of male CD1 mice
T3 sequence (P56481 1-453): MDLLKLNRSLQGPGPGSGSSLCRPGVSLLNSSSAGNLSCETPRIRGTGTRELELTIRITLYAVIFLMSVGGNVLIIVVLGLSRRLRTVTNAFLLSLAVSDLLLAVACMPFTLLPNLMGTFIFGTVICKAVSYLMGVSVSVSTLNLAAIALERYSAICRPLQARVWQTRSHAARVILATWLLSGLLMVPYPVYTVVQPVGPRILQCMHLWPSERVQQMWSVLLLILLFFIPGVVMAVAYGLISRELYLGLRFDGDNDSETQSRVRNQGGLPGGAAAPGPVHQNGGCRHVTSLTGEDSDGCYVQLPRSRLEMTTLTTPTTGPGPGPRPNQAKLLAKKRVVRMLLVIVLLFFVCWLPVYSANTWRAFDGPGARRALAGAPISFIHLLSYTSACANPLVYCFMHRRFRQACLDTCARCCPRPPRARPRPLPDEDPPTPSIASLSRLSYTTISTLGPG
In words: CCKB receptor radioligand binding assay in mouse cortical membranes. Conditions: [125I]-CCK8(S) 200 pM, 150 min at 21±3°, read-out: CCKB pKi (converted). In a few lines:
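Bound radioactivity was gamma-counted after rapid GF/B filtration and cold 50 mM Tris-HCl (pH 7.4) washes. The tissue was cerebral cortex from male CD1 mice, prepared as twice-centrifuged membranes in pH 7.2 HEPES/NaCl/KCl/MgCl2/EDTA buffer with bacitracin at 20 mg/ml original wet weight.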

18 molecules from US6479531B1, “Gastrin and cholecystokinin receptor ligands” (James Black Foundation Limited, priority 1998, dated 2002) can be followed below.

For the molecule `O=C(O)Cc1cccc(NC(=O)c2nc(C3CCCCC3)[nH]c2COC23CC4CC(CC(C4)C2)C3)c1` [Example 219, (3-{[5-(Adamantan-1-yloxymethyl)-2-cyclohexyl-1H-imidazole-4-carbonyl]-amino}-phenyl)-acetic Acid], the Ki on CCKA receptor was 501 nM. The Kb at gastrin receptor was 69.2 nM.
Taken in the same sequence, the figures for `O=C(O)Cc1cccc(NC(=O)c2nc(C34CCC(CC3)CC4)[nH]c2COC23CC4CC(CC(C4)C2)C3)c1` [Example 224, (3-{[5-(Adamantan-1-yloxymethyl)-2-bicyclo[2.2.2]oct-1-yl-1H-imidazole-4-carbonyl]-amino}-phenyl)-acetic Acid] were 631 nM and 18.2 nM.
On the same counts, the results for `O=C(O)c1cccc(NC(=O)c2nc([C@@H]3CC4C=C[C@H]3C4)[nH]c2COC23CC4CC(CC(C4)C2)C3)c1` [Example 236] are 794 nM and 1.05 nM.
`CCc1ccccc1-c1nc(C(=O)Nc2cccc(C(=O)O)c2)c(CCC23CC4CC(CC(C4)C2)C3)[nH]1` [Example 158, 3-{[5-(2-Adamantan-1-yl-ethyl)-2-(2-ethyl-phenyl)-1H-imidazole-4-carbonyl]-amino}-benzoic Acid]: the Kb on gastrin receptor is 105 nM. At CCKB receptor, the Ki is 759 nM.
On the same counts, the results for `Cc1ccccc1-c1nc(NC(=O)c2cccc(C(=O)O)c2)c(CCC23CC4CC(CC(C4)C2)C3)[nH]1` [Example 92, N-[5-(2-Adamantan-1-yl-ethyl)-2-o-tolyl-1H-imidazol-4-yl]-isophthalamic Acid] are 158 nM and 1020 nM.
As for `O=C(O)c1cccc(NC(=O)c2nc(CC3CCCCC3)[nH]c2CCC23CC4CC(CC(C4)C2)C3)c1` [Example 193, 3-{[5-(2-Adamantan-1-yl-ethyl)-2-cyclohexylmethyl-1H-imidazole-4-carbonyl]-amino}-benzoic Acid], at gastrin receptor, the Kb is 20.4 nM. In addition, the Ki at CCKB receptor is 57.5 nM.
Taken in the same sequence, the figures for `O=C(O)c1cccc(NC(=O)c2nc(-c3ccc(O)cc3)[nH]c2CCC23CC4CC(CC(C4)C2)C3)c1` [Example 63, 3-{[5-(2-Adamantan-1-yl-ethyl)-2(4-hydroxy-phenyl)-1H-imidazole-4-carbonyl]-amino}-benzoic Acid] were 1620 nM and 1100 nM.
Taken in the same sequence, the figures for `Cc1ccccc1-c1nc(C(=O)Nc2cccc(C(=O)O)c2C)c(CCC23CC4CC(CC(C4)C2)C3)[nH]1` [Example 104, 3-{[5-(2-Adamantan-1-yl-ethyl)-2-o-tolyl-1H-imidazole-4-carbonyl]-amino}-2-methyl-benzoic Acid] were 42.7 nM and 129 nM.
On the same counts, the results for `CC(C(=O)O)c1cccc(NC(=O)c2nc(C3CCCCC3)[nH]c2CCC23CC4CC(CC(C4)C2)C3)c1` (racemic) [Example 255, (±)-2-(3-{[5-(2-Adamantan-1-yl-ethyl)-2-cyclohexyl-1H-imidazole-4-carbonyl]-amino}-phenyl)-propionic Acid] are 178 nM and 1.41 nM.
Turning to `Cc1ccccc1-c1nc(C(=O)Nc2cccc(C(=O)O)c2)c(CCc2ccccc2)[nH]1` [Example 87, 3-[(5-Phenethyl-2-o-tolyl-1H-imidazole-4-carbonyl)-amino]-benzoic Acid], at gastrin receptor, the Kb was 1170 nM. For the same molecule, the Ki at CCKB receptor is 2690 nM.
Take `O=C(O)c1cc(NC(=O)c2[nH]c(-c3ccccc3)nc2CC23CC4CC(CC(C4)C2)C3)cc(C(=O)O)c1` [Example 37, 5-[(5-Adamantan-1-ylmethyl-2-phenyl-1H-imidazole-4-carbonyl)-amino]-isophthalic Acid]: at gastrin receptor, the Kb was 1260 nM. Also, the Ki at CCKB receptor was 209 nM.
Taken in the same sequence, the figures for `O=C(O)c1cccc(NC(=O)c2sc(C3CCCCC3)nc2CCC23CC4CC(CC(C4)C2)C3)c1` [Example 122, 3-{[4-(2-Adamantan-1-yl-ethyl)-2-cyclohexyl-thiazole-5-carbonyl]-amino}-benzoic Acid] were 3020 nM and 1020 nM.
Regarding `O=C(O)c1cccc(NC(=O)c2nc(C3CC4CCC3C4)[nH]c2CCC23CC4CC(CC(C4)C2)C3)c1` (racemic) [Example 114, (±)-endo-3-{[5-(2-Adamantan-1-yl-ethyl)-2-bicyclo[2.2.1]hept-2-yl-1H-imidazole-4-carbonyl]-amino}-benzoic Acid], the Kb at gastrin receptor was 2.24 nM. The Ki on CCKB receptor is 31.6 nM.
On the same counts, the results for `O=C(O)c1cccc(NC(=O)c2nc(-c3ccc(F)cc3F)[nH]c2CCC23CC4CC(CC(C4)C2)C3)c1` [Example 60, 3-{[5-(2-Adamantan-1-yl-ethyl)-2-(2,4-difluoro-phenyl)-1H-imidazole-4-carbonyl]-amino}-benzoic Acid] are 7.76 nM and 141 nM.
For the molecule `CCC(CC)c1nc(C(=O)Nc2cccc(C(=O)O)c2)c(CCC23CC4CC(CC(C4)C2)C3)[nH]1` [Example 112, 3-{[5-(2-Adamantan-1-yl-ethyl)-2-(1-ethyl-propyl)-1H-imidazole-4-carbonyl]-amino}-benzoic Acid], at gastrin receptor, the Kb was 9.33 nM. Besides, the Ki at CCKB receptor is 45.7 nM.
`O=C(O)c1cccc(NC(=O)c2nc(-c3cccc(F)c3)[nH]c2CCC23CC4CC(CC(C4)C2)C3)c1` [Example 55, 3-{[5-(2-Adamantan-1-yl-ethyl)-2-(3-fluoro-phenyl)-1H-imidazole-4-carbonyl]-amino}-benzoic Acid]: the Kb at gastrin receptor is 229 nM. In addition, the Ki on CCKB receptor is 646 nM.
For `CC1(c2nc(C(=O)Nc3ccc(F)c(C(=O)O)c3)c(CCC34CC5CC(CC(C5)C3)C4)[nH]2)CCCCC1` [Example 201, 5-{[5-(2-Adamantan-1-yl-ethyl)-2-(1-methyl-cyclohexyl)-1H-imidazole-4-carbonyl]-amino]-2-fluoro-benzoic Acid], the Kb on gastrin receptor is 4.9 nM. Besides, the Ki at CCKB receptor is 8.71 nM.
On the same counts, the results for `Cc1ccc(NC(=O)c2nc(C3CCC4CC3C4(C)C)[nH]c2CCC23CC4CC(CC(C4)C2)C3)cc1C(=O)O` (stereo not drawn) [Example 191, 5-{[5-(2-Adamantan-1-yl-ethyl)-2-(6,6-dimethyl-bicyclo[3.1.1]hept-2-yl)-1H-imidazole-4-carbonyl]-amino}-2-methyl-benzoic Acid] are 67.6 nM and 28.8 nM.
